Values joined by “and” are separate entries in the source; they are usually repeats but may differ in a detail not shown here. Equal entries are not always repeated. “Also recorded” adds a separate entry of the source.
Key:
[1] = test system: patients with alopecia areata; conditions: oral tofacitinib 5 mg twice daily for 6 months; cited from earlier work
[2] = test system: patients with chronic, refractory, moderate to severe alopecia areata; test: Retrospective clinical study of orally administered and sublingual tofacitinib, 7-point assessment scale of hair regrowth; type: in vivo, human; conditions: for Increase in hair growth of >+1, % of patients / Increase in hair growth of >+1, number of patients / Mean score on 7-point assessment scale / Patients who achieved +3 (complete response, CR) / Median score on 7-point assessment scale: all patients
[3] = dose range 1-20 mg, oral or sublingual
[4] = of 71 patients on immunosuppressive co-therapy at start
[5] = oral or sublingual, n = 127, listed as Tofacitinib
[6] = orally administered, 3 months, n = 39, mean dose 4.19 mg
[7] = orally administered, 6 months, n = 36, mean dose 4.96 mg
[8] = orally administered, 9 months, n = 25, mean dose 5.58 mg
[9] = orally administered, 12 months, n = 21, mean dose 5.63 mg
[10] = orally administered, 15 months, n = 16, mean dose 6.90 mg
[11] = orally administered, 18 months, n = 7, mean dose 6.07 mg
[12] = prolonged disease duration >10 years, n = 38
[13] = sublingual, 3 months, n = 88, mean dose 3.73 mg
[14] = sublingual, 6 months, n = 74, mean dose 4.48 mg
[15] = sublingual, 9 months, n = 53, mean dose 4.71 mg
[16] = sublingual, 12 months, n = 34, mean dose 6.25 mg
[17] = sublingual, 15 months, n = 15, mean dose 6.81 mg
[18] = sublingual, 18 months, n = 3, mean dose 5.00 mg
[19] = tofacitinib monotherapy, n = 56

C[C@@H]1CCN(C(=O)CC#N)C[C@@H]1N(C)c1ncnc2[nH]ccc12 [tofacitinib]
Response rate [1]: 64.9%
Late responders with CR ([2]; 31 late responders, 6 months): 2
Late responders with a score of 0 ([2]; 31 late responders, 6 months): 8
Late responders with a score of >+1 ([2]; 31 late responders, 6 months): 17
Late responders in CR ([2]; 31 late responders, 9 months): 4
Late responders with a score of >+1 ([2]; 31 late responders, 9 months): 20
Late responders who had achieved CR ([2]; 31 late responders, by 15 months): 10
Overall effect on hair loss and regrowth [2, 3]: arrested hair loss and stimulated regrowth in the overwhelming majority of patients; also recorded: highly effective
Tolerability [2, 3]: well tolerated
Patients who developed asymptomatic hepatic transaminitis leading to treatment discontinuation ([2]; later diagnosed with nonalcoholic steatohepatitis): One
Patients who discontinued all other immunosuppressive treatment after starting tofacitinib, % [2, 4]: 46%
Patients who discontinued all other immunosuppressive treatment after starting tofacitinib, number [2, 4]: Thirty-three
Early responders who achieved a +2 ([2]; of the 67 early responders): 40%
Early responders who achieved a +3 ([2]; of the 67 early responders): 22%
Patients who have remained in CR for >12 months ([2]; oral or sublingual): nine
Patients who remain in CR after six months of continued treatment ([2]; oral or sublingual): Twenty-four
Side effects ([2]; oral or sublingual): infrequent and mild
Increase in hair growth of >+1, % of patients ([2]; oral or sublingual, 3 months): 56%
Increase in hair growth of >+1, number of patients ([2]; oral or sublingual, 3 months): 71
Mean score on 7-point assessment scale ([2]; oral or sublingual, 3 months): 0.84 and 0.8
Patients who achieved +3 (complete response, CR) ([2]; oral or sublingual, 3 months): 12%
Median score on 7-point assessment scale ([2]; oral or sublingual, 3 months (IQR 0 to +2)): +1 (25-49% hair loss)
Mean score on 7-point assessment scale ([2]; oral or sublingual, 6 months): 1.1
Mean score on 7-point assessment scale ([2]; oral or sublingual, 9 months): 1.1
Increase in hair growth of >+1, % of patients ([2]; oral or sublingual, 12 months): 78%
Increase in hair growth of >+1, number of patients ([2]; oral or sublingual, 12 months): 43
Mean score on 7-point assessment scale ([2]; oral or sublingual, 12 months): 1.66 and 1.6
Patients who achieved +3 (complete response, CR) ([2]; oral or sublingual, 12 months): 40%
Median score on 7-point assessment scale ([2]; oral or sublingual, 12 months (IQR +1 to +3)): +2 (1-24% hair loss)
Mean score on 7-point assessment scale ([2]; oral or sublingual, 15 months): 1.9
Increase in hair growth of >+1, % of patients ([2]; oral or sublingual, 18 months): 90%
Increase in hair growth of >+1, number of patients ([2]; oral or sublingual, 18 months): 9
Mean score on 7-point assessment scale ([2]; oral or sublingual, 18 months): 2.33 and 2.4
Patients who achieved +3 (complete response, CR) ([2]; oral or sublingual, 18 months): 80%
Median score on 7-point assessment scale ([2]; oral or sublingual, 18 months (IQR +3 to +3)): +3 (No hair loss (SALT 0))
Early responders (>+1 score by 3 months of treatment), % of patients ([2]; oral or sublingual, n = 127): 53%
Early responders (>+1 score by 3 months of treatment), number of patients ([2]; oral or sublingual, n = 127): Sixty-seven
Late responders (>+1 score after 6 months of treatment), % of patients ([2]; oral or sublingual, n = 127): 24%
Late responders (>+1 score after 6 months of treatment), number of patients ([2]; oral or sublingual, n = 127): Thirty-one
Primary treatment failure (failed to respond), number of patients ([2]; oral or sublingual, n = 127): Twenty-four
Primary treatment failure, % of patients ([2]; oral or sublingual, n = 127): 19%
Relapse (at least one grade deterioration in score), number of patients ([2]; oral or sublingual, n = 127): Twenty-eight
Relapse, % of patients ([2]; oral or sublingual, n = 127): 22%
Primary treatment failure (failed to respond), number of patients [2, 5]: 24
Relapse (at least one grade deterioration in score), number of patients [2, 5]: 28
Score +1, number of patients [2, 6]: 7
Score +2, number of patients [2, 6]: 8
Score +3, % of patients [2, 6]: 18%
Score +3, number of patients [2, 6]: 7
Total non-responders, % of patients [2, 6]: 44%
Total non-responders, number of patients [2, 6]: 17
Total responders, % of patients [2, 6]: 56%
Total responders, number of patients [2, 6]: 22
Score +1, number of patients [2, 7]: 4
Score +2, number of patients [2, 7]: 7
Score +3, % of patients [2, 7]: 27%
Score +3, number of patients [2, 7]: 10
Total non-responders, % of patients [2, 7]: 42%
Total non-responders, number of patients [2, 7]: 15
Total responders, % of patients [2, 7]: 58%
Total responders, number of patients [2, 7]: 21
Score +1, number of patients [2, 8]: 3
Score +2, number of patients [2, 8]: 4
Score +3, % of patients [2, 8]: 48%
Score +3, number of patients [2, 8]: 12
Total non-responders, % of patients [2, 8]: 24%
Total non-responders, number of patients [2, 8]: 6
Total responders, % of patients [2, 8]: 76%
Total responders, number of patients [2, 8]: 19
Score +1, number of patients [2, 9]: 1
Score +2, number of patients [2, 9]: 5
Score +3, % of patients [2, 9]: 52%
Score +3, number of patients [2, 9]: 11
Total non-responders, % of patients [2, 9]: 19%
Total non-responders, number of patients [2, 9]: 4
Total responders, % of patients [2, 9]: 81%
Total responders, number of patients [2, 9]: 17
Score +1, number of patients [2, 10]: 1
Score +2, number of patients [2, 10]: 2
Score +3, % of patients [2, 10]: 56%
Score +3, number of patients [2, 10]: 9
Total non-responders, % of patients [2, 10]: 25%
Total non-responders, number of patients [2, 10]: 4
Total responders, % of patients [2, 10]: 75%
Total responders, number of patients [2, 10]: 12
Score +1, number of patients [2, 11]: 0
Score +2, number of patients [2, 11]: 1
Score +3, % of patients [2, 11]: 71%
Score +3, number of patients [2, 11]: 5
Total non-responders, % of patients [2, 11]: 14%
Total non-responders, number of patients [2, 11]: 1
Total responders, % of patients [2, 11]: 86%
Total responders, number of patients [2, 11]: 6
Secondary treatment failure, number of patients ([2]; out of 28 who experienced a relapse while on treatment): Five
Patients who achieved a CR, % ([2]; patients with AT/AU): 37%
Patients who achieved a CR, number ([2]; patients with AT/AU): 13
Patients who achieved a response, % ([2]; patients with AT/AU): 71%
Patients who achieved a response, number ([2]; patients with AT/AU): 25
Early responders, number of patients [2, 12]: 21
Late responders, number of patients [2, 12]: 10
Never responded, number of patients [2, 12]: 6
Patients who had regrowth [2, 12]: 81.6%
Relapsed, number of patients [2, 12]: 2
Score +1, number of patients [2, 13]: 21
Score +2, number of patients [2, 13]: 20
Score +3, % of patients [2, 13]: 9%
Score +3, number of patients [2, 13]: 8
Total non-responders, % of patients [2, 13]: 46.5%
Total non-responders, number of patients [2, 13]: 41
Total responders, % of patients [2, 13]: 53%
Total responders, number of patients [2, 13]: 49
Score +1, number of patients [2, 14]: 18
Score +2, number of patients [2, 14]: 17
Score +3, % of patients [2, 14]: 20%
Score +3, number of patients [2, 14]: 15
Total non-responders, % of patients [2, 14]: 32%
Total non-responders, number of patients [2, 14]: 24
Total responders, % of patients [2, 14]: 68%
Total responders, number of patients [2, 14]: 50
Score +1, number of patients [2, 15]: 13
Score +2, number of patients [2, 15]: 12
Score +3, % of patients [2, 15]: 26%
Score +3, number of patients [2, 15]: 14
Total non-responders, % of patients [2, 15]: 26%
Total non-responders, number of patients [2, 15]: 14
Total responders, % of patients [2, 15]: 74%
Total responders, number of patients [2, 15]: 39
Score +1, number of patients [2, 16]: 8
Score +2, number of patients [2, 16]: 11
Score +3, % of patients [2, 16]: 32%
Score +3, number of patients [2, 16]: 11
Total non-responders, % of patients [2, 16]: 15%
Total non-responders, number of patients [2, 16]: 5
Total responders, % of patients [2, 16]: 85%
Total responders, number of patients [2, 16]: 29
Score +1, number of patients [2, 17]: 3
Score +2, number of patients [2, 17]: 5
Score +3, % of patients [2, 17]: 40%
Score +3, number of patients [2, 17]: 6
Total non-responders, % of patients [2, 17]: 7%
Total non-responders, number of patients [2, 17]: 1
Total responders, % of patients [2, 17]: 93%
Total responders, number of patients [2, 17]: 14
Score +1, number of patients [2, 18]: 0
Score +2, number of patients [2, 18]: 0
Score +3, % of patients [2, 18]: 100%
Score +3, number of patients [2, 18]: 3
Total non-responders, number of patients [2, 18]: 0
Total responders, % of patients [2, 18]: 100%
Total responders, number of patients [2, 18]: 3
Early responders, % of patients [2, 19]: 51.7%
Early responders, number of patients [2, 19]: Twenty-nine
Late responders, % of patients [2, 19]: 19.6%
Late responders, number of patients [2, 19]: 11
Patients who achieved a CR [2, 19]: Eighteen
Primary failures, % of patients [2, 19]: 26.7%
Primary failures, number of patients [2, 19]: 15
Secondary failure, number of patients [2, 19]: 1

Source: US12364696B2, “Treatment of autoimmune disease” (priority 2019, dated 2025)
